Measurements published in patent US8530493B2, “Indolopyridines as Eg5 kinesin modulators” (4SC AG, priority 2006, dated 2013).

Experiments:
[1] = test system: RKO p27 or p21 uninduced (proliferating) colon adenocarcinoma cells; experiment: Alamar Blue cell viability assay, RKO p27 or p21 uninduced (proliferating); type: cell-based; details: Homo sapiens, RKOp27, 72 h, Table B2, anti-proliferative/cytotoxic activity, read-out: −log EC50 RKO p27 or p21 uninduced (proliferating) (converted)
Protocol: The anti-proliferative/cytotoxic activity of the compounds described herein can be tested on subclones of RKO human colon adenocarcinoma cells (Schmidt et al., Oncogene 19, 2423-2429; 2000) using the Alamar Blue cell viability assay (described in O'Brien et al. Eur J Biochem 267, 5421-5426, 2000). The compounds are dissolved as 10 mM solutions in DMSO and subsequently diluted in semi-logarithmic steps. DMSO dilutions are further diluted 1:100 into Dulbecco's modified Eagle's medium (DMEM) containing 10% fetal calf serum to a final concentration twice as much as the final concentration in the test. RKO subclones are seeded into 96 well flat bottom plates at a density of 4000 cells per well in a volume of 50 μl per well. 24 hours after seeding the 50 μl each of the compound dilutions in DMEM medium are added into each well of the 96 well plate. Each compound dilution is tested as triplicates. Wells containing untreated control cells are filled with 50 μl DMEM medium containing 1% DMSO. The cells are then incubated with the substances for 72 hours at 37° C. in a humidified atmosphere containing 5% carbon dioxide. To determine the viability of the cells, 10 μl of an Alamar Blue solution (Biosource) are added and the fluorescence is measured at an extinction of 544 nm and an emission of 590 nm. For the calculation of the cell viability the emission value from untreated cells is set as 100% viability and the emission rates of treated cells are set in relation to the values of untreated cells. Viabilities are expressed as % values. The Graphpad Prism program is used for the calculation of EC50 values for anti-proliferative/cytotoxic activity out of the obtained dose-response curves.
(§1) To determine the cell cycle specific mode of action, subclones of RKO colon adenocarcinoma cells (RKOp21 or RKOp27 as described by Schmidt et al. in Oncogene 19, 2423-2429; 2000) are seeded into 96 well flat bottom plates at a density of 16000 cells per well in a volume of 50 μl per well in DMEM growth medium with 10% FCS containing 10 μM Ponasterone A. 24 hours after seeding the 50 μl each of the compound dilutions in DMEM medium are added into each well of the 96-well plate. Each compound dilution is tested as triplicates. Wells containing untreated control cells are filled with 50 μl DMEM medium containing 1% DMSO. The cells are then incubated with the substances for 72 hours at 37° C. in a humidified atmosphere containing 5% carbon dioxide. To determine the viability of the cells, 10 μl of an Alamar Blue solution (Biosource) are added and the fluorescence is measured at an extinction of 544 nm and an emission of 590 nm. For the calculation of the cell viability the emission value from untreated cells is set as 100% viability and the emission rates of treated cells are set in relation to the values of untreated cells. Viabilities are expressed as % values. The Graphpad Prism program (GraphPad Software, Inc) is used for the calculation of EC50 values out of the obtained dose-response curves. Viability is compared of proliferating cells grown in the absence of the inducer Ponasterone A, versus viability of cells arrested by the expression of ectopic p27Kip1 induced by Ponasterone A.
(§2) Representative values for anti-proliferation/cytotoxicity [measured as −log EC50 (mol/l)] determined in the aforementioned assays follow from the following tables B1, B2 and B3, in which the numbers of the compounds correspond to the numbers of the examples.

[2] = test system: RKO p27 or p21 induced (arrested) colon adenocarcinoma cells; experiment: Alamar Blue cell viability assay, RKO p27 or p21 induced (arrested); type: cell-based; details: Homo sapiens, RKOp27, Table B2, cells arrested by Ponasterone A, 72 hours, read-out: −log EC50 RKO p27 or p21 induced (arrested) (converted)
Protocol: as §1, §2

EC50 [2] [nM]	Structure (SMILES)	EC50 [1] [nM]
≥ 316	CCN(CC)CCN1C(=O)N2[C@H](c3cccc(O)c3)c3[nH]c4ccc(Cl)cc4c3C[C@@]2(C)C1=O (racemic) [Example 110, (3aSR,10RS)-6-Chloro-2-(2-diethylamino-ethyl)-10-(3-hydroxy-phenyl)-3a-methyl-3a,4,9,10-tetrahydro-2,9,10a-triaza-cyclopenta[b]fluorene-1,3-dione]	≤ 39.8
≥ 3160	COc1ccc2[nH]c3c(c2c1)C[C@@]1(C)C(=O)N(CCCNC(C)C)C(=O)N1[C@@H]3c1cccc(O)c1 (racemic) [Example 67, (3aSR,10RS)-10-(3-Hydroxy-phenyl)-2-(3-isopropylamino-propyl)-6-methoxy-3a-methyl-3a,4,9,10-tetrahydro-2,9,10a-triaza-cyclopenta[b]fluorene-1,3-dione]	≤ 39.8
≥ 3160	C#CCNCCN1C(=O)N2[C@H](c3cccc(O)c3)c3[nH]c4ccc(OC)cc4c3C[C@@]2(C)C1=O (racemic) [Example 85, (3aSR,10RS)-10-(3-Hydroxy-phenyl)-6-methoxy-3a-methyl-2-(2-prop-2-ynylamino-ethyl)-3a,4,9,10-tetrahydro-2,9,10a-triaza-cyclopenta[b]fluorene-1,3-dione]	39.8 to 251
≥ 316	COc1ccc2[nH]c3c(c2c1)C[C@@]1(C)C(=O)N(CCCN(C)CCO)C(=O)N1[C@@H]3c1cccc(O)c1 (racemic) [Example 143, (3aSR,10RS)-2-{3[(2-Hydroxy-ethyl)-methyl-amino]-propyl}-10-(3-hydroxy-phenyl)-6-methoxy-3a-methyl-3a,4,9,10-tetrahydro-2,9,10a-triaza-cyclopenta[b]fluorene-1,3-dione]	≤ 39.8
≥ 3160	C[C@@]12Cc3c([nH]c4ccc(Cl)cc34)[C@@H](c3cccc(O)c3)N1C(=O)N(CCNC1CC1)C2=O (racemic) [Example 102, (3aSR,10RS)-6-Chloro-2-(2-cyclopropylamino-ethyl)-10-(3-hydroxy-phenyl)-3a-methyl-3a,4,9,10-tetrahydro-2,9,10a-triaza-cyclopenta[b]fluorene-1,3-dione]	≤ 39.8
≥ 3160	CC(C)CNCCN1C(=O)N2[C@H](c3cccc(O)c3)c3[nH]c4ccc(Cl)cc4c3C[C@@]2(C)C1=O (racemic) [Example 99, (3aSR,10RS)-6-Chloro-10-(3-hydroxy-phenyl)-2-(2-isobutylamino-ethyl)-3a-methyl-3a,4,9,10-tetrahydro-2,9,10a-triaza-cyclopenta[b]fluorene-1,3-dione]	≤ 39.8
≥ 3160	C#CCN(C)CCN1C(=O)N2[C@H](c3cccc(O)c3)c3[nH]c4ccc(OC)cc4c3C[C@@]2(C)C1=O (racemic) [Example 81, (3aSR,10RS)-10-(3-Hydroxy-phenyl)-6-methoxy-3a-methyl-2-[2-(methyl-prop-2-ynyl-amino)-ethyl]-3a,4,9,10-tetrahydro-2,9,10a-triaza-cyclopenta[b]fluorene-1,3-dione]	≤ 39.8
≥ 3160	COCCNCCN1C(=O)N2[C@H](c3cccc(O)c3)c3[nH]c4ccc(OC)cc4c3C[C@@]2(C)C1=O (racemic) [Example 83, (3aSR,10RS)-10-(3-Hydroxy-phenyl)-6-methoxy-2-[2-(2-methoxy-ethylamino)-ethyl]-3a-methyl-3a,4,9,10-tetrahydro-2,9,10a-triaza-cyclopenta[b]fluorene-1,3-dione]	≤ 39.8
≥ 3160	CC1CCN(CCN2C(=O)N3[C@H](c4cccc(O)c4)c4[nH]c5ccc(Cl)cc5c4C[C@@]3(C)C2=O)CC1 (racemic) [Example 98, (3aSR,10RS)-6-Chloro-10-(3-hydroxy-phenyl)-3a-methyl-2-[2-(4-methyl-piperidin-1-yl)-ethyl]-3a,4,9,10-tetrahydro-2,9,10a-triaza-cyclopenta[b]fluorene-1,3-dione]	≤ 39.8
≥ 3160	CCN(CCCN1C(=O)N2[C@H](c3cccc(O)c3)c3[nH]c4ccc(OC)cc4c3C[C@@]2(C)C1=O)CCOC (racemic) [Example 90, (3aSR,10RS)-2-{3-[Ethyl-(2-methoxy-ethyl)-amino]-propyl}-10-(3-hydroxy-phenyl)-6-methoxy-3a-methyl-3a,4,9,10-tetrahydro-2,9,10a-triaza-cyclopenta[b]fluorene-1,3-dione]	≤ 39.8
≥ 3160	CCN(CCO)CCN1C(=O)N2[C@H](c3cccc(O)c3)c3[nH]c4ccc(OC)cc4c3C[C@@]2(C)C1=O (racemic) [Example 78, (3aSR,10RS)-2-[2-[Ethyl-(2-hydroxy-ethyl)-amino]-ethyl}-10-(3-hydroxy-phenyl)-6-methoxy-3a-methyl-3a,4,9,10-tetrahydro-2,9,10a-triaza-cyclopenta[b]fluorene-1,3-dione]	≤ 39.8
≥ 3160	C#CC(C)NCCCN1C(=O)N2[C@H](c3cccc(O)c3)c3[nH]c4ccc(Cl)cc4c3C[C@@]2(C)C1=O (mixture of isomers) [Example 136, (3aSR,10RS)-6-Chloro-10-(3-hydroxy-phenyl)-3a-methyl-2-[3-((R and S)1-methyl-prop-2-ynylamino)-propyl]-3a,4,9,10-tetrahydro-2,9,10a-triaza-cyclopenta[b]fluorene-1,3-dione]	≤ 39.8
≥ 316	COc1ccc2[nH]c3c(c2c1)C[C@@]1(C)C(=O)N(CCCN2CCCCCC2)C(=O)N1[C@@H]3c1cccc(O)c1 (racemic) [Example 113]	≤ 39.8
≥ 3160	COc1ccc2[nH]c3c(c2c1)C[C@@]1(C)C(=O)N(CCN(C)C(C)C)C(=O)N1[C@@H]3c1cccc(O)c1 (racemic) [Example 70, (3aSR,10RS)-10-(3-Hydroxy-phenyl)-2-[2-(isopropyl-methyl-amino)-ethyl]-6-methoxy-3a-methyl-3a,4,9,10-tetrahydro-2,9,10a-triaza-cyclopenta[b]fluorene-1,3-dione]	≤ 39.8
≥ 316	CCN(CCO)CCN1C(=O)N2[C@H](c3cccc(O)c3)c3[nH]c4ccc(Cl)cc4c3C[C@@]2(C)C1=O (racemic) [Example 124, (3aSR,10RS)-6-Chloro-2-{2-[ethyl-(2-hydroxy-ethyl)-amino]-ethyl}-10-(3-hydroxy-phenyl)-3a-methyl-3a,4,9,10-tetrahydro-2,9,10a-triaza-cyclopenta[b]fluorene-1,3-dione]	≤ 39.8
≥ 316	CN(CCO)CCN1C(=O)N2[C@H](c3cccc(O)c3)c3[nH]c4ccc(Cl)cc4c3C[C@@]2(C)C1=O (racemic) [Example 126, (3aSR,10RS)-6-Chloro-2-{2-[(2-hydroxy-ethyl)-methyl-amino]-ethyl}-10-(3-hydroxy-phenyl)-3a-methyl-3a,4,9,10-tetrahydro-2,9,10a-triaza-cyclopenta[b]fluorene-1,3-dione]	≤ 39.8
≥ 3160	CC(C)CNCCCN1C(=O)N2[C@H](c3cccc(O)c3)c3[nH]c4ccc(Cl)cc4c3C[C@@]2(C)C1=O (racemic) [Example 135, (3aSR,10RS)-6-Chloro-10-(3-hydroxy-phenyl)-2-(3-isobutylamino-propyl)-3a-methyl-3a,4,9,10-tetrahydro-2,9,10a-triaza-cyclopenta[b]fluorene-1,3-dione]	≤ 39.8
